In the supplement of paper PMC13380429:

Legend:
Settings in all cases: 72 h
Calu-3 [1] = assay: drug sensitivity score (DSS) for viability; higher = more toxic; extreme values may be limits of the assay
HepG2 [2] = assay: as above
Vero E6 [3] = assay: as above
U2OS [4] = assay: as above
Caco-2 [5] = assay: as above
Caco-2 [6] = assay: relative viability EC50 (midpoint between 100% and the lowest measured viability); higher = less toxic
Calu-3 [7] = assay: as above
Vero E6 [8] = assay: as above
U2OS [9] = assay: as above
Caco-2 [10] = assay: cell viability relative to DMSO; higher = less toxic
Calu-3 [11] = assay: as above
Vero E6 [12] = assay: as above
U2OS [13] = assay: as above
HepG2 [14] = assay: as above

Row | SMILES | drug sensitivity score (Calu-3 [1]) | drug sensitivity score (HepG2 [2]) | drug sensitivity score (Vero E6 [3]) | drug sensitivity score (U2OS [4]) | drug sensitivity score (Caco-2 [5]) | relative viability EC50 (Caco-2 [6]) | relative viability EC50 (Calu-3 [7]) | relative viability EC50 (Vero E6 [8]) | relative viability EC50 (U2OS [9]) | cell viability (Caco-2 [10]; 1 nM) | cell viability (Caco-2 [10]; 10 nM) | cell viability (Caco-2 [10]; 100 nM) | cell viability (Caco-2 [10]; 1000 nM) | cell viability (Caco-2 [10]; 10000 nM) | cell viability (Calu-3 [11]; 1 nM) | cell viability (Calu-3 [11]; 10 nM) | cell viability (Calu-3 [11]; 100 nM) | cell viability (Calu-3 [11]; 1000 nM) | cell viability (Calu-3 [11]; 10000 nM) | cell viability (Vero E6 [12]; 1 nM) | cell viability (Vero E6 [12]; 10 nM) | cell viability (Vero E6 [12]; 100 nM) | cell viability (Vero E6 [12]; 1000 nM) | cell viability (Vero E6 [12]; 10000 nM) | cell viability (U2OS [13]; 1 nM) | cell viability (U2OS [13]; 10 nM) | cell viability (U2OS [13]; 100 nM) | cell viability (U2OS [13]; 1000 nM) | cell viability (U2OS [13]; 10000 nM) | cell viability (HepG2 [14]; 1 nM) | cell viability (HepG2 [14]; 10 nM) | cell viability (HepG2 [14]; 100 nM) | cell viability (HepG2 [14]; 1000 nM) | cell viability (HepG2 [14]; 10000 nM)
1 | COc1c(N2C[C@@H]3CCCN[C@@H]3C2)c(F)cc2c(=O)c(C(=O)O)cn(C3CC3)c12 [moxifloxacin] | 0 | 0 | 0 | 0 | – | – | – | – | – | – | – | – | – | – | – | – | – | – | – | – | – | – | – | – | – | – | – | – | – | – | – | – | – | –
2 | CC(O)CN1CCN(CC(=O)[O-])CCN(CC(=O)[O-])CCN(CC(=O)[O-])CC1.[Gd+3] (configuration not stated) [gadoteridol] | 0 | – | 0 | 0 | 0 | > 10 µM | > 10 µM | > 10 µM | > 10 µM | 103% | 110% | 96% | 142% | 92.1% | 101% | 91.2% | 95.3% | 102% | 96.1% | 94.7% | 93.1% | 110% | 93.1% | 105% | 93.2% | 103% | 98.5% | 99.1% | 103% | – | – | – | – | –
3 | C=CC(=O)O [acrylate] | 0 | 0 | 0 | 0 | – | – | – | – | – | – | – | – | – | – | – | – | – | – | – | – | – | – | – | – | – | – | – | – | – | – | – | – | – | –
4 | C1=C2CCCN[C@H]2[C@@H]2C[C@H]1[C@H]1CCCCN1C2 [aloperine] | 1.4 | – | 0 | 0 | 0 | > 10 µM | > 10 µM | > 10 µM | > 10 µM | 96.4% | 108% | 104% | 106% | 94.4% | 91.1% | 99.2% | 90.7% | 85% | 83.1% | 102% | 100% | 104% | 99.4% | 98.1% | 96.8% | 102% | 92.8% | 100% | 94.1% | – | – | – | – | –
5 | CCC(=O)O[C@H](CC(=O)O)C[N+](C)(C)C [levocarnitine-propionate] | 0.2 | – | 0 | – | 0 | > 10 µM | > 10 µM | > 10 µM | – | 94.7% | 103% | 98.7% | 108% | 98.5% | 87.9% | 108% | 97.9% | 100% | 85.8% | 106% | 105% | 99.2% | 100% | 104% | – | – | – | – | – | – | – | – | – | –
6 | COc1ccccc1S(=O)(=O)Nc1ccc2c(c1)CN(C)C(=O)N2 [PFI-1] | 3.9 | 3.6 | 7.6 | – | 1.7 | > 10 µM | – | 1.65 µM | – | 102% | 102% | 107% | 94% | 75.7% | 102% | 92.6% | 102% | 88% | 58.2% | 102% | 102% | 96.2% | 81.5% | 16.3% | – | – | – | – | – | 108% | 103% | 94.3% | 94.4% | 50.1%
7 | FC(F)OC(F)(F)C(F)Cl (configuration not stated) [enflurane] | 0 | – | 0 | – | 0 | > 10 µM | > 10 µM | > 10 µM | – | 96.9% | 104% | 98.3% | 103% | 107% | 85.1% | 94.2% | 85.6% | 101% | 103% | 94.7% | 103% | 98.4% | 104% | 103% | – | – | – | – | – | – | – | – | – | –
8 | Cc1cc(O)c(C(=O)N[C@@H](C(=O)N[C@@H]2C(=O)N3C(C(=O)O)=C(CSc4nnnn4C)CS[C@H]23)c2ccc(O)cc2)cn1 [cefpiramide] | 0 | – | 0 | 0 | 0 | > 10 µM | > 10 µM | > 10 µM | > 10 µM | 94.2% | 106% | 116% | 110% | 95.3% | 99% | 102% | 108% | 106% | 98% | 101% | 94.1% | 100% | 104% | 96.3% | 93.4% | 98.3% | 96.5% | 99.5% | 101% | – | – | – | – | –
9 | N=C(N)NN=C1C=CC(=NNC(N)=S)C=C1 [ambazone] | 0 | 3.9 | 0 | 0 | 0 | > 10 µM | > 10 µM | > 10 µM | > 10 µM | 88.4% | 94.9% | 94.6% | 91.2% | 92.7% | 105% | 95.8% | 94.1% | 98.2% | 118% | 90.9% | 95.1% | 102% | 100% | 103% | 95% | 94.8% | 97.9% | 99.3% | 95% | 97.1% | 95.3% | 102% | 83.4% | 63.2%
10 | Nc1ccc(S(=O)(=O)Nc2ccccn2)cc1 [sulfapyridine] | 0 | 0 | 0 | 0 | – | – | – | – | – | – | – | – | – | – | – | – | – | – | – | – | – | – | – | – | – | – | – | – | – | – | – | – | – | –
11 | N#C/C(=C\c1ccc(O)c(O)c1)C(=O)Nc1ccccc1 [tyrphostin-AG-494] | 0 | 1.8 | 0 | 0 | 0.2 | > 10 µM | > 10 µM | > 10 µM | > 10 µM | 110% | 99.8% | 104% | 95.7% | 88.3% | 93.5% | 102% | 95.1% | 101% | 107% | 104% | 100% | 104% | 105% | 90.6% | 105% | 102% | 99.2% | 97.3% | 93.1% | 101% | 102% | 98.6% | 110% | 54.6%
12 | CN(C)CCc1c[nH]c2ccc(CS(=O)(=O)N3CCCC3)cc12 [almotriptan] | 0 | – | – | 0 | 0 | > 10 µM | > 10 µM | – | > 10 µM | 92.9% | 97.9% | 99.9% | 109% | 106% | 98.8% | 103% | 108% | 97.8% | 106% | – | – | – | – | – | 101% | 104% | 101% | 98.6% | 100% | – | – | – | – | –
13 | NCC(=O)Nc1ccc(-n2nc(C(F)(F)F)cc2-c2ccc3c(ccc4ccccc43)c2)cc1 [AR-12] | 2.7 | 0.9 | 3.5 | 0 | 0 | > 10 µM | 3.39 µM | – | > 10 µM | 96.8% | 91% | 87.9% | 96.8% | 92.1% | 103% | 98.2% | 98.9% | 102% | 45.4% | 97.4% | 94.3% | 95.7% | 80.4% | 68.2% | 89.7% | 98.9% | 95% | 100% | 89% | 110% | 96.1% | 103% | 105% | 71.5%
14 | C[C@]12C=CC(=O)N[C@@H]1CC[C@@H]1[C@@H]2CC[C@]2(C)[C@@H](C(=O)Nc3cc(C(F)(F)F)ccc3C(F)(F)F)CC[C@@H]12 [dutasteride] | 0 | – | – | – | 0 | > 10 µM | > 10 µM | – | – | 111% | 93% | 105% | 97.4% | 104% | 111% | 99% | 98.2% | 105% | 106% | – | – | – | – | – | – | – | – | – | – | – | – | – | – | –
15 | Cc1ccccc1NC(=O)Nc1ccc(CC(=O)N(C)[C@@H](CC(C)C)C(=O)NCC[C@H](NC(=O)[C@@H]2CCCN2S(=O)(=O)c2cc(Cl)cc(Cl)c2)C(=O)O)cc1 [BIO-5192] | 0 | – | 0 | 0 | 0 | > 10 µM | > 10 µM | > 10 µM | > 10 µM | 98% | 97.3% | 90.5% | 99.5% | 96.8% | 104% | 102% | 96.5% | 108% | 104% | 98.3% | 93.9% | 93.1% | 96.7% | 109% | 102% | 96.2% | 95.1% | 105% | 97.6% | – | – | – | – | –
16 | CO[C@@H]1[C@@H](OC(N)=O)[C@@H](O)[C@H](Oc2ccc3c(O)c(NC(=O)c4ccc(O)c(CC=C(C)C)c4)c(=O)oc3c2C)OC1(C)C [novobiocin] | 1.1 | – | – | – | 0 | > 10 µM | > 10 µM | – | – | 124% | 92.9% | 109% | 108% | 112% | 98.1% | 101% | 98.8% | 93.6% | 81.2% | – | – | – | – | – | – | – | – | – | – | – | – | – | – | –
17 | Cc1cc(C)nc(SCC(=O)Nc2ncc(Cc3cccc4ccccc34)s2)n1 [SirReal-2] | 0 | – | – | 0 | 0 | > 10 µM | > 10 µM | – | > 10 µM | 104% | 101% | 93.4% | 99.6% | 96.6% | 97% | 95.7% | 95.1% | 91% | 102% | – | – | – | – | – | 94.7% | 103% | 96.6% | 101% | 92.8% | – | – | – | – | –
18 | CC(C)(C)NCC(O)c1cc(Cl)c(N)c(Cl)c1 (configuration not stated) [clenbuterol] | 0 | – | 0 | 0 | 0 | > 10 µM | > 10 µM | > 10 µM | > 10 µM | 93.7% | 89.9% | 103% | 90.8% | 117% | 108% | 85.1% | 100% | 93.7% | 97.4% | 95.3% | 101% | 97.8% | 104% | 112% | 97.6% | 95% | 105% | 98.2% | 96.9% | – | – | – | – | –
19 | CN(C[C@@H]1COCCO1)S(=O)(=O)Nc1ccc2ccc3ncc(-c4cnn(C)c4)cc3c(=O)c2c1 [MK-2461] | 0 | 3.5 | 3.1 | 2.2 | 1.7 | – | > 10 µM | – | – | 103% | 97.9% | 94.5% | 99.7% | 64.5% | 81.9% | 89% | 84% | 90.7% | 93.9% | 103% | 97.7% | 97.3% | 93.2% | 59.7% | 89.1% | 98.8% | 99.2% | 96.9% | 64.1% | 96.6% | 96.6% | 96.5% | 91.4% | 58.6%
